Measurements from US20260209193A1, “NOVEL INHIBITORS OF DNA DAMAGE RESPONSES FOR CANCER THERAPY” (The Regents of the University of California, priority 2022, published 2026).

biological target: T1, ATR (Homo sapiens, UniProt Q13535); assay: ATR-mediated signaling: phosphorylation of Rad17 Ser 645 and CHK1 Ser 345 in cells; type: cell-based; settings: 1 μM and 2 μM; PC3 and MDA-MB-231 cells
T1 construct: endogenous in cells; host or cells: PC3, C4-2B/MR, SUM149PT-BRCA1rev, UWB1.289+BRCA1, MDA-MB-231
Method: PARP inhibitor-resistant cells are increasingly dependent on ATR for survival, and ATR inhibition disrupts restored HR and fork protection pathways in PARP inhibitor resistant BRCA-deficient cancer cells. For ATR kinase in vitro assays, ATR was immunoprecipitated with 3 μg of anti-ATR antibody (Bethyl Laboratories, A300-137A) from 1 mg of cell lysate. […] The IC50 was determined by the enzyme profiling service of Eurofins Cerep (France). […] The phosphorylation of CHK1 at Ser 345 sites was used as a bio-marker of ATR-mediated signaling pathway. The phosphorylation of Rad17 at Ser 645, which is a substrate of ATR, was also examined.
ATR inhibition was assessed in C4-2B/MR cells. Considering ATM is a homologous protein of ATR, we also detected the effect of JC046 analogs on the phosphorylation of KAP1 at Ser 824 and CHK2 at Thr 68 sites, which were used as markers of ATM signaling pathway.

T1 sequence (Q13535 whole entry): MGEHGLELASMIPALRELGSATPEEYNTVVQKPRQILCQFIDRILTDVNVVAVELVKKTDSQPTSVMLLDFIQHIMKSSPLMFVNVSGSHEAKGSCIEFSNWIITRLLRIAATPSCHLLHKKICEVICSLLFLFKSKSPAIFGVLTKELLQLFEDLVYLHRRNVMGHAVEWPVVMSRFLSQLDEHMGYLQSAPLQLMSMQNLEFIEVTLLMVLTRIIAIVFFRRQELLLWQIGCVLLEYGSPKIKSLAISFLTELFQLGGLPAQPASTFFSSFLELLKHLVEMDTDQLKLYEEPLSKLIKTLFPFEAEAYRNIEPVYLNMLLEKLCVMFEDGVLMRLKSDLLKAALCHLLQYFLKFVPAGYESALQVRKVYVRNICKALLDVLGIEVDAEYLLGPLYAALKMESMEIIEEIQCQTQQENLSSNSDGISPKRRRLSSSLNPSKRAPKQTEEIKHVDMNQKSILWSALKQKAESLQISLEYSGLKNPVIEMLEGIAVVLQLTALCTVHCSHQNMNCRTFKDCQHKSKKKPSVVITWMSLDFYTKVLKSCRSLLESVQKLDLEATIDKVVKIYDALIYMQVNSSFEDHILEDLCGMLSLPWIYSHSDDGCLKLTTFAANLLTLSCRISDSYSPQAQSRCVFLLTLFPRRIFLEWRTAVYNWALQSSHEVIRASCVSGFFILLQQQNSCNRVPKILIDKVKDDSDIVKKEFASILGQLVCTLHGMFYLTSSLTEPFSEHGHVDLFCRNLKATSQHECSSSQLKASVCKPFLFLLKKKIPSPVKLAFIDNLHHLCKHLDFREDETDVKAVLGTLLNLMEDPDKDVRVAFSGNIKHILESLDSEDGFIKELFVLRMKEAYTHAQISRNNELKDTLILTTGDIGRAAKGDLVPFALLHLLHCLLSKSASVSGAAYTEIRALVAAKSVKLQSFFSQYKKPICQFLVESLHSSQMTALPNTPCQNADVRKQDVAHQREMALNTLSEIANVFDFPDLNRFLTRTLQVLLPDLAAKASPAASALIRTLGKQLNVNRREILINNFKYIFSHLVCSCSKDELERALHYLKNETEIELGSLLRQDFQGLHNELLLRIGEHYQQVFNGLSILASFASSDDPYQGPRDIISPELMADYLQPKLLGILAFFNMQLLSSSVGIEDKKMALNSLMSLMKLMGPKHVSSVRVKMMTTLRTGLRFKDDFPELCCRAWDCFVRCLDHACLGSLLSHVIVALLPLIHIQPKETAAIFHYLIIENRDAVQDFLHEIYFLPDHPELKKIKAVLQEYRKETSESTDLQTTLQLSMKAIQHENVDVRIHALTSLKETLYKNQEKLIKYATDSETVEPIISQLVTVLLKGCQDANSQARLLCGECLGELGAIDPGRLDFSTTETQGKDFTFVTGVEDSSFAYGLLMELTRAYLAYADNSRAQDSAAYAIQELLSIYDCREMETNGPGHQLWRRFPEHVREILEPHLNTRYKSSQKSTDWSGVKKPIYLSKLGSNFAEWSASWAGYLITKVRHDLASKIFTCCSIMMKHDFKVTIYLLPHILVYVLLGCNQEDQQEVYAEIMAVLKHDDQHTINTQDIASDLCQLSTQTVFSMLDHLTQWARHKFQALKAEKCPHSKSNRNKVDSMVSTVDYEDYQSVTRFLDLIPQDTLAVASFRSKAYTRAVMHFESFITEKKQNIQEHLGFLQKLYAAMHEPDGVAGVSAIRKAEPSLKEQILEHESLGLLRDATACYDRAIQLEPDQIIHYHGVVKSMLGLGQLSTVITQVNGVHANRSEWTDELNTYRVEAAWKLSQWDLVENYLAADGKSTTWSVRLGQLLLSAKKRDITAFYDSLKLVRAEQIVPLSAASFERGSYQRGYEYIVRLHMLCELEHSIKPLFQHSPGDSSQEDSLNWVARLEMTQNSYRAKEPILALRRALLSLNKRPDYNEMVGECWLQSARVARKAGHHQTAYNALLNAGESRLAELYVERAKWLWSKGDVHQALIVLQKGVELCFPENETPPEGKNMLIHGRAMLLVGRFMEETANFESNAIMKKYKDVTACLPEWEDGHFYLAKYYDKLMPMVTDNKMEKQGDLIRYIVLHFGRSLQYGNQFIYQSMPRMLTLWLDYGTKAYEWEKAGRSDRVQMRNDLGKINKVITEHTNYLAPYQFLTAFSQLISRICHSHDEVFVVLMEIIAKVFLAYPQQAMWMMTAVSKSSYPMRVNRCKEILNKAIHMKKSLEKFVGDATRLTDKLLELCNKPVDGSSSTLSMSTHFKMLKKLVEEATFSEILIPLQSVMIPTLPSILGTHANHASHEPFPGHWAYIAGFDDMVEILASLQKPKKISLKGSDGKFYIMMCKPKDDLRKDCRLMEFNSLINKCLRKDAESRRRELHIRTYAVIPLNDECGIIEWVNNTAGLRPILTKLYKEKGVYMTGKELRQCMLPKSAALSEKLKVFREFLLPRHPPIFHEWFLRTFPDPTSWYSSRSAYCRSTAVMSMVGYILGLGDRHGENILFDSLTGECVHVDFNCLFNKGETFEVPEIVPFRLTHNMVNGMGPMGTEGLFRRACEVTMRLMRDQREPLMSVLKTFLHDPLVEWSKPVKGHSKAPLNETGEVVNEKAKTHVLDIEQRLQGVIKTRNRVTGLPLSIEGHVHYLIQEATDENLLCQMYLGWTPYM
T1 sequence (Q8WXE1 whole entry partner): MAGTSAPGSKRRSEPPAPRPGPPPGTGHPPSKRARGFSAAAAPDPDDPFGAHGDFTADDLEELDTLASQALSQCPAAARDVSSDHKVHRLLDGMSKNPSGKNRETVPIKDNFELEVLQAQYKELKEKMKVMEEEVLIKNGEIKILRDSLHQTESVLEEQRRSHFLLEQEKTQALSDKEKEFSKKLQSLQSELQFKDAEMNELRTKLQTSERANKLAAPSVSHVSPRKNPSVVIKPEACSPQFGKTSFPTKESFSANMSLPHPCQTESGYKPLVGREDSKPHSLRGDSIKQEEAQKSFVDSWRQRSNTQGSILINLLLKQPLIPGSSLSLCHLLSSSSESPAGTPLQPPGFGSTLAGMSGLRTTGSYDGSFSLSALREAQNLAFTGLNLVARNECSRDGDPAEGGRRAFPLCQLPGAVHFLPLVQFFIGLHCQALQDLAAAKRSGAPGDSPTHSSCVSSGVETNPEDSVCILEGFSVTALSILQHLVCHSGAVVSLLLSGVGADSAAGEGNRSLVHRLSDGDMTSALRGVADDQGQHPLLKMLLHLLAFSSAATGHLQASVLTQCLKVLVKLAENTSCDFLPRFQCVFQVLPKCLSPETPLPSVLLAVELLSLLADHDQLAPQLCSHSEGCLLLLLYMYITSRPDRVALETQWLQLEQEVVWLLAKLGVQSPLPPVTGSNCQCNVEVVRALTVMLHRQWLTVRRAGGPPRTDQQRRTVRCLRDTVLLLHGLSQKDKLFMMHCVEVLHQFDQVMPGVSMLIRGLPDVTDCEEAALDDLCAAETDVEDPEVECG

SMILES	Olaparib induced phosphorylation of Rad17 at Ser 645 and CHK1 at Ser 345
O=C(CCN1CCCC1)NC1C/C(=C\c2ccc(F)c(F)c2)C(=O)/C(=C/c2ccc(F)c(F)c2)C1 (centres unmarked) [JCS007, N-(3,5-bis((E)-3,4-difluorobenzylidene)-4-oxocyclohexyl)-3-(pyrrolidin-1-yl)propanamide]	inhibited

same assay, conditions: compared to JC099

SMILES	ATR inhibition potency relative to JC099 (OLA- or UV-induced phosphorylation of Rad17 and CHK1)
CCN1CCC[C@@H]1CNc1ccc(C(=O)NC2C/C(=C\c3ccc(F)c(F)c3)C(=O)/C(=C/c3ccc(F)c(F)c3)C2)cc1 (stereo partly drawn) [JCS066, N-(3,5-Bis((E)-3,4-difluorobenzylidene)-4-oxocyclohexyl)-4-((((R)-1-ethylpyrrolidin-2-yl)methyl)-amino)benzamide]	greater ATR inhibition potential
N#Cc1cc(NCCN2CCCC2)ccc1C(=O)NC1C/C(=C\c2ccc(F)c(F)c2)C(=O)/C(=C/c2ccc(F)c(F)c2)C1 (centres unmarked) [JCS0091]	their potencies were close to JC099
O=C1/C(=C/c2ccc(F)c(F)c2)CC(NC(=O)c2cnc(NCCN3CCCC3)c([N+](=O)[O-])c2)C/C1=C\c1ccc(F)c(F)c1 (centres unmarked) [JCS092, N-(3,5-Bis((E)-3,4-difluorobenzylidene)-4-oxocyclohexyl)-5-nitro-6-((2-(pyrrolidin-1-yl)ethyl)ami-no)nicotinamide]	their potencies were close to JC099
O=C1/C(=C/c2ccc(F)c(F)c2)CC(NC(=O)c2cnc(NCCN3CCCC3)cn2)C/C1=C\c1ccc(F)c(F)c1 (centres unmarked) [JCS093, N-(3,5-Bis((E)-3,4-difluorobenzylidene)-4-oxocyclohexyl)-5-((2-(pyrrolidin-1-yl)ethyl)amino)pyr-azine-2-carboxamide]	less ATR inhibition potencies
CCN(CC)CCOc1ccc(-c2ccc(C(=O)NC3C/C(=C\c4ccc(F)c(F)c4)C(=O)/C(=C/c4ccc(F)c(F)c4)C3)cc2)cc1 (centres unmarked) [JCS095, N-(3,5-Bis((E)-3,4-difluorobenzylidene)-4-oxocyclohexyl)-4′-(2-(diethylamino)ethoxy)-[1,1′-biphenyl]-4-carboxamide]	less ATR inhibition potencies

biological target: T2, PARP1 (Homo sapiens, UniProt P09874); assay: PARP1 trapping, chromatin fractionation (chromatin-bound fraction); type: cell-based; settings: PC3 cells
T2 construct: endogenous in cells; host or cells: PC3
Description: The trapped PARP1 forms a toxic lesion and stalls the progress of replication forks. The replication fork collapses in BRCA1/2-deficient cancer cells, and then results in cell death. […] Six cancer cell lines were used in this assay, including two breast cancer cell lines, BRCA1-mutunt SUM149PT-BRCA1mut and SUM149PT-BRCA1rev where deleterious BRCA1 mutation is reverted to form a functional BRCA1, two ovarian cancer cell lines, BRCA1-null UWB1.289 and UWB1.289+BRCA1, a stable cell line in which wild-type BRCA1 function has been restored, and two prostate cancer cell lines, enzalutamide resistant C4-2B/MR which is homologous recombination (HR)-deficient due to Rad51 mutation, and enzalutamide insensitive PC3 which is HR-proficient.

T2 sequence (P09874 whole entry, species assumed): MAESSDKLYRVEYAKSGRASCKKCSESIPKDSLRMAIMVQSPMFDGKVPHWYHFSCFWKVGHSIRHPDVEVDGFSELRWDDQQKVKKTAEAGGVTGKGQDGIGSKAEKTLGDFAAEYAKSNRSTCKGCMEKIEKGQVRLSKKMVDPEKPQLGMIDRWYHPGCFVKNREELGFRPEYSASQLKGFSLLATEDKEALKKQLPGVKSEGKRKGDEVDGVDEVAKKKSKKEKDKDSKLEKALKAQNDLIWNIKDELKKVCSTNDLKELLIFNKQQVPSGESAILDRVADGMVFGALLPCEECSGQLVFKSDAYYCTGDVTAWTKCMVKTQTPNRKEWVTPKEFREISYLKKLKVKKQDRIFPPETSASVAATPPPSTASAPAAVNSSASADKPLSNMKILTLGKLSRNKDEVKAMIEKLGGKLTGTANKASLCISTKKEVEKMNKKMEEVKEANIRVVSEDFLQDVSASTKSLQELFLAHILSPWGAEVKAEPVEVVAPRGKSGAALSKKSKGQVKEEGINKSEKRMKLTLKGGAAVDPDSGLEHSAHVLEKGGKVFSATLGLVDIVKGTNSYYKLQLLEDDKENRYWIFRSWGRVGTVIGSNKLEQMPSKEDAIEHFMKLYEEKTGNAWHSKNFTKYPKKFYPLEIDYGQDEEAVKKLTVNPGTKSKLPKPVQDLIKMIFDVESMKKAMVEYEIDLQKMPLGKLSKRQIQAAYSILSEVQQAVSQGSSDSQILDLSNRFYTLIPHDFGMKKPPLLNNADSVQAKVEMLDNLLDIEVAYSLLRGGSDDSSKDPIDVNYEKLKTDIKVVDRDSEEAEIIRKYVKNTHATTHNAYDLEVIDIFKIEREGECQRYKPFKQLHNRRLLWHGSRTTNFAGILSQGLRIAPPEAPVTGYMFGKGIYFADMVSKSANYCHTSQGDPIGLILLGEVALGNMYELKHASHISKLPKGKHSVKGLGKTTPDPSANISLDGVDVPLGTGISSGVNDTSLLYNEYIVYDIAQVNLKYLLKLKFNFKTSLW

SMILES	PARP1-trapping potency relative to JC099 (PARP1 in the chromatin-bound fraction)
O=C1/C(=C/c2ccc(F)c(F)c2)CC(NC(=O)c2ccc(OCCN3CCCCC3)c(OCc3ccccc3)c2)C/C1=C\c1ccc(F)c(F)c1 (centres unmarked) [JCS102, 3-(Benzyloxy)-N-(3,5-bis((E)-3,4-difluorobenzylidene)-4-oxocyclohexyl)-4-(2-(piperidin-1-yl)eth-oxy)benzamide]	higher potency in PARP1-trapping
CC(=O)c1cc(C(=O)NC2C/C(=C\c3ccc(F)c(F)c3)C(=O)/C(=C/c3ccc(F)c(F)c3)C2)ccc1OCCN1CCCCC1 (centres unmarked) [JCS103, 3-Acetyl-N-(3,5-bis((E)-3,4-difluorobenzylidene)-4-oxocyclohexyl)-4-(2-(piperidin-1-yl)ethoxy)-benzamide]	higher potency in PARP1-trapping
CCN(CC)CCOc1ccc(C(=O)NC2C/C(=C\c3ccc(F)c(F)c3)C(=O)/C(=C/c3ccc(F)c(F)c3)C2)nc1 (centres unmarked) [JCS131, N-(3,5-Bis((E)-3,4-difluorobenzylidene)-4-oxocyclohexyl)-5-(2-(diethylamino)ethoxy)picolinamide]	higher potency in PARP1-trapping
O=C1/C(=C/c2ccc(F)c(F)c2)CC(NC(=O)c2ccc(OCCN3CCN4CCCC4C3)cc2)C/C1=C\c1ccc(F)c(F)c1 (centres unmarked) [JCS135, N-(3,5-Bis((E)-3,4-difluorobenzylidene)-4-oxocyclohexyl)-4-(2-(hexahydropyrrolo[1,2-a]pyrazin-2(1H)-yl)ethoxy)benzamide]	higher potency in PARP1-trapping
O=C1/C(=C/c2ccc(F)c(F)c2)CC(NC(=O)c2ccc(OCCN3CC4OCCOC4C3)cc2)C/C1=C\c1ccc(F)c(F)c1 (centres unmarked) [JCS137, N-(3,5-Bis((E)-3,4-difluorobenzylidene)-4-oxocyclohexyl)-4-(2-(hexahydro-6H-[1,4]dioxino[2,3-c]pyrrol-6-yl)ethoxy)benzamide]	their potencies were less than JC099
